Measured values published in article doi:10.1101/2021.06.08.447613v1 (biorxiv, 2021).

Molecular target: M^Pro (SARS-CoV-2 main protease) (Severe acute respiratory syndrome coronavirus 2, UniProt P0DTD1)
Assay: fluorogenic peptide substrate cleavage, […] min preincubation
Type: biochemical
Conditions: pH 7.6, 37 °C, 50 nM enzyme, 10 μM substrate

CCN(CC)CCCC(C)Nc1ccnc2cc(Cl)ccc12 (stereo not shown) [chloroquine]
% activity retained at 16 μM: 84%
